Values after ≈ are worked out from the molar mass of the structure shown.
What was measured:
[1] = tested on: Staphylococcus aureus No. 26; assay: antibacterial activity (Minimum Inhibitory Concentration); format: cell-based; conditions: Staphylococcus aureus No. 26; read-out: MIC
Proteus species C73-23 = assay: as above; format: cell-based; conditions: Proteus species C73-23; read-out: MIC
Pseudomonas 1007 = assay: paper disk method, inhibitory zone diameter; format: cell-based; conditions: Pseudomonas, 1007; 2000 γ/ml; read-out: inhibitory zone diameter
[2] = tested on: Vibrio parahaemolyticus K-5; assay: antibacterial activity (Minimum Inhibitory Concentration); format: cell-based; conditions: K5; Vibrio parahaemolyticus K-5; read-out: MIC
[3] = tested on: Salmonella species C73-30; assay: as above; format: cell-based; conditions: C7330
[4] = tested on: Staphylococcus aureus C73-21; assay: as above; format: cell-based; conditions: C7321; Staphylococcus aureus C73-21; read-out: MIC
[5] = tested on: Vibrio parahaemolyticus K-7; assay: as above; format: cell-based; conditions: K7; Vibrio parahaemolyticus K-7; read-out: MIC
[6] = tested on: Shigella dysenteriae Shigae; assay: microbe, parasite or virus in culture; format: cell-based
Proteus species C73-33 = assay: antibacterial activity (Minimum Inhibitory Concentration); format: cell-based; conditions: Proteus species C73-33; read-out: MIC
[7] = tested on: Staphylococcus aureus 209P JC-1; assay: as above; format: cell-based; conditions: Staphylococcus aureus 209P JC-1; read-out: MIC
Proteus morganii Kono = assay: as above; format: cell-based; conditions: Morganella morganii
[8] = tested on: Enterococcus species C73-33; assay: as above; format: cell-based; conditions: C7333; Enterococcus species C73-33; read-out: MIC
[9] = tested on: Bacillus subtilis ATCC 6633; assay: paper disk method, inhibitory zone diameter; format: cell-based; conditions: read-out: inhibitory zone diameter
Proteus species C73-25 = assay: antibacterial activity (Minimum Inhibitory Concentration); format: cell-based; conditions: Proteus species C73-25; read-out: MIC
[10] = tested on: Enterococcus species C73-17; assay: as above; format: cell-based; conditions: C7317; Enterococcus species C73-17; read-out: MIC
E. coli C73-12 = assay: as above; format: cell-based; conditions: Escherichia coli, C7312
E. coli C73-4 = assay: as above; format: cell-based; conditions: Escherichia coli, C734; E. coli C73-4; read-out: MIC
microorganisms indicated = assay: antimicrobial activities, paper disk method (general statement); format: cell-based; conditions: Tables 1 to 4
Experimental: The inhibitory activities were determined at various concentrations of the compounds using the paper disk method against the microorganisms indicated and the numerical values show the inhibitory zone diameter in terms of mm.

E. coli C73-1 = assay: antibacterial activity (Minimum Inhibitory Concentration); format: cell-based; conditions: Escherichia coli, C731; E. coli C73-1; read-out: MIC
[11] = tested on: Vibrio parahaemolyticus K-3; assay: as above; format: cell-based; conditions: K3; Vibrio parahaemolyticus K-3; read-out: MIC
[12] = tested on: Bacillus anthracis No. 119; assay: microbe, parasite or virus in culture; format: cell-based
[13] = tested on: Staphylococcus aureus C73-4; assay: antibacterial activity (Minimum Inhibitory Concentration); format: cell-based; conditions: C734; Staphylococcus aureus C73-4; read-out: MIC
Klebsiella 7 = assay: paper disk method, inhibitory zone diameter; format: cell-based; conditions: Klebsiella, 7
Klebsiella 6 = assay: paper disk method, inhibitory zone diameter; format: cell-based; conditions: Klebsiella, 6
[14] = tested on: Staphylococcus albus PCI-1200A; assay: antibacterial activity (Minimum Inhibitory Concentration); format: cell-based; conditions: PCI1200A; Staphylococcus albus PCI-1200A; read-out: MIC
male ICR mice = assay: acute toxicity; conditions: intravenous administration, 200 mg/kg
Proteus species C73-34 = assay: antibacterial activity (Minimum Inhibitory Concentration); format: cell-based; conditions: Proteus species C73-34; read-out: MIC
[15] = tested on: Bacillus subtilis ATCC 6633; assay: as above; format: cell-based; conditions: ATCC6633; Bacillus subtilis ATCC 6633; read-out: MIC
Mycobacterium 607 = assay: paper disk method, inhibitory zone diameter; format: cell-based; conditions: Mycobacterium, 607, read-out: inhibitory zone diameter
[16] = tested on: Staphylococcus aureus C73-10; assay: antibacterial activity (Minimum Inhibitory Concentration); format: cell-based; conditions: C7310; Staphylococcus aureus C73-10; read-out: MIC
[17] = tested on: E. coli HL-1629 (Kanamycin-resistant strain); assay: microbe, parasite or virus in culture; format: cell-based; conditions: Escherichia coli, read-out: inhibitory zone diameter
[18] = tested on: Staphylococcus aureus Smith S-424; assay: antibacterial activity (Minimum Inhibitory Concentration); format: cell-based; conditions: SMITHS424; Staphylococcus aureus Smith S-424; read-out: MIC
Klebsiella pneumoniae = assay: as above; format: cell-based; conditions: read-out: MIC
[19] = tested on: Staphylococcus aureus 6538P; assay: paper disk method, inhibitory zone diameter; format: cell-based; conditions: read-out: inhibitory zone diameter
[20] = 2000 γ/ml, read-out: inhibitory zone diameter

## NC[C@H]1O[C@H](O[C@H]2[C@H](O)C[C@H](N)C[C@@H]2N)[C@H](N)[C@@H](O)[C@@H]1O [6-Deoxyneamine, 6-deoxyneamine]
[1]
  MIC: 6.25 µg/mL (≈ 20.4 µM)
Proteus species C73-23
  MIC: 25 µg/mL (≈ 81.6 µM)
Pseudomonas 1007
  zone of inhibition at 2000 µg/mL: 0 mm
[2]
  MIC: 25 µg/mL (≈ 81.6 µM)
[3]
  MIC: 50 µg/mL (≈ 163 µM)
[4]
  MIC: 1.56 µg/mL (≈ 5.09 µM)
[5]
  MIC: 25 µg/mL (≈ 81.6 µM)
[6]
  MIC: 12.5 µg/mL (≈ 40.8 µM)
Proteus species C73-33
  MIC: 100 µg/mL (≈ 326 µM)
[7]
  MIC: 1.56 µg/mL (≈ 5.09 µM)
Proteus morganii Kono
  MIC: 12.5 µg/mL (≈ 40.8 µM)
[8]
  MIC: 25 µg/mL (≈ 81.6 µM)
[9]; ATCC6633, 7.8 γ/ml
  zone of inhibition at 7.8 µg/mL: 15 mm
[9]; ATCC6633, 15.6 γ/ml
  zone of inhibition at 15.6 µg/mL: 17.6 mm
[9]; ATCC6633, 31.2 γ/ml
  zone of inhibition at 31.2 µg/mL: 21.1 mm
[9]; ATCC6633, 62.5 γ/ml
  zone of inhibition at 62.5 µg/mL: 22.7 mm
[9]; ATCC6633, 125 γ/ml
  zone of inhibition at 125 µg/mL: 25.6 mm
[9]; ATCC6633, 250 γ/ml
  zone of inhibition at 250 µg/mL: 28.2 mm
[9]; ATCC6633, 500 γ/ml
  zone of inhibition at 500 µg/mL: 31.2 mm
[9]; ATCC6633, 1000 γ/ml
  zone of inhibition at 1000 µg/mL: 33.2 mm
[9]; ATCC6633, 2000 γ/ml
  zone of inhibition at 2000 µg/mL: 35.7 mm
Proteus species C73-25
  MIC: 6.25 µg/mL (≈ 20.4 µM)
[10]
  MIC: 50 µg/mL (≈ 163 µM)
E. coli C73-12
  MIC: 12.5 µg/mL (≈ 40.8 µM)
E. coli C73-4
  MIC: 25 µg/mL (≈ 81.6 µM)
Microorganisms indicated
  antimicrobial activities relative to neamine: superior to those of the parent compound neamine
E. coli C73-1
  MIC: 25 µg/mL (≈ 81.6 µM)
[11]
  MIC: 1.56 µg/mL (≈ 5.09 µM)
[12]
  MIC: 12.5 µg/mL (≈ 40.8 µM)
[13]
  MIC: 6.25 µg/mL (≈ 20.4 µM)
Klebsiella 7; 250 γ/ml
  zone of inhibition at 250 µg/mL: 0 mm
Klebsiella 7; 500 γ/ml
  zone of inhibition at 500 µg/mL: 11.2 mm
Klebsiella 7; 1000 γ/ml
  zone of inhibition at 1000 µg/mL: 15.6 mm
Klebsiella 7; [20]
  zone of inhibition at 2000 µg/mL: 17.5 mm
Klebsiella 6; 250 γ/ml
  zone of inhibition at 250 µg/mL: 0 mm
Klebsiella 6; 500 γ/ml
  zone of inhibition at 500 µg/mL: 11.1 mm
Klebsiella 6; 1000 γ/ml
  zone of inhibition at 1000 µg/mL: 14.1 mm
Klebsiella 6; [20]
  zone of inhibition at 2000 µg/mL: 16.4 mm
[14]
  MIC: 3.13 µg/mL (≈ 10.2 µM)
Male ICR mice
  acute toxicity, survival: all male ICR mice were survived
Proteus species C73-34
  MIC: 25 µg/mL (≈ 81.6 µM)
[15]
  MIC: 0.78 µg/mL (≈ 2.55 µM)
Mycobacterium 607; 62.5 γ/ml
  zone of inhibition at 62.5 µg/mL: 0 mm
Mycobacterium 607; 125 γ/ml
  zone of inhibition at 125 µg/mL: 11 mm
Mycobacterium 607; 250 γ/ml
  zone of inhibition at 250 µg/mL: 16.2 mm
Mycobacterium 607; 500 γ/ml
  zone of inhibition at 500 µg/mL: 21.7 mm
Mycobacterium 607; 1000 γ/ml
  zone of inhibition at 1000 µg/mL: 28.3 mm
Mycobacterium 607; 2000 γ/ml
  zone of inhibition at 2000 µg/mL: 33.6 mm
[16]
  MIC: 6.25 µg/mL (≈ 20.4 µM)
[17]
  zone of inhibition at 500 µg/mL: 0 mm
  zone of inhibition at 1000 µg/mL: 12.5 mm
  zone of inhibition at 2000 µg/mL: 18 mm
[18]
  MIC: 3.13 µg/mL (≈ 10.2 µM)
Klebsiella pneumoniae
  MIC: 25 µg/mL (≈ 81.6 µM)
[19]; 7.8 γ/ml
  zone of inhibition at 7.8 µg/mL: 0 mm
[19]; 15.6 γ/ml
  zone of inhibition at 15.6 µg/mL: 0 mm
[19]; 31.2 γ/ml
  zone of inhibition at 31.2 µg/mL: 10 mm
[19]; 62.5 γ/ml
  zone of inhibition at 62.5 µg/mL: 12 mm
[19]; 125 γ/ml
  zone of inhibition at 125 µg/mL: 15.7 mm
[19]; 250 γ/ml
  zone of inhibition at 250 µg/mL: 18.1 mm
[19]; 500 γ/ml
  zone of inhibition at 500 µg/mL: 20 mm
[19]; 1000 γ/ml
  zone of inhibition at 1000 µg/mL: 22.2 mm
[19]; 2000 γ/ml
  zone of inhibition at 2000 µg/mL: 24.2 mm

— US4103082A, “Aminocyclitol derivatives and process for producing the same” (priority 1975, dated 1978)
